One assay deals with Vasopressin V2 receptor (Homo sapiens, UniProt P30518).
Assay [1] has as its target Glutamate receptor ionotropic, NMDA 1 (Rattus norvegicus, UniProt P35439).
The target in assay [2] is T1, Alpha-2A adrenergic receptor (Homo sapiens, UniProt P08913).
T1 sequence (P08913 whole entry): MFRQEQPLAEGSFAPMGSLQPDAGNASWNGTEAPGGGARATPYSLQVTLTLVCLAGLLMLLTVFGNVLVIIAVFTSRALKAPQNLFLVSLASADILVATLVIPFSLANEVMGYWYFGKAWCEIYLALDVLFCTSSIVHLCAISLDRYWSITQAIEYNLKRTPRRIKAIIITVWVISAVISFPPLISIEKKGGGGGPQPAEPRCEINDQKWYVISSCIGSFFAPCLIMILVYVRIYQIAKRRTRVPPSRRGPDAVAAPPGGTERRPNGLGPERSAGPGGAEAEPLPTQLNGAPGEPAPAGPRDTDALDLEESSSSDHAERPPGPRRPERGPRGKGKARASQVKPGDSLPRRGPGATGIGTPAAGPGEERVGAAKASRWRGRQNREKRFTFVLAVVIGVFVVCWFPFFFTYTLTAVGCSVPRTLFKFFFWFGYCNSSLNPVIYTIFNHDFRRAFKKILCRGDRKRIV
The format is functional, cell-based.

Assay [3] addresses Growth hormone secretagogue receptor type 1 (Homo sapiens, UniProt Q92847).
In another assay the target is T2, Adenosine receptor A3 (Homo sapiens, UniProt P0DMS8).
T2 sequence (P0DMS8 whole entry): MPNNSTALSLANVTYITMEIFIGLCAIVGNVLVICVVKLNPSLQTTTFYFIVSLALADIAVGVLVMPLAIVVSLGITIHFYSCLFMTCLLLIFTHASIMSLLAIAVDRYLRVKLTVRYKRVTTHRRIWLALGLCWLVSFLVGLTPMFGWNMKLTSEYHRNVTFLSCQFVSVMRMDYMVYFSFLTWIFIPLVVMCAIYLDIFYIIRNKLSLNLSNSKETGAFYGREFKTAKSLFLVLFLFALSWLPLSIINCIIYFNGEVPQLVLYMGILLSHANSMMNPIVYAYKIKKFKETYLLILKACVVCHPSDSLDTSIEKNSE

Assay [4] has as its target T3, Gastrin/cholecystokinin type B receptor (Homo sapiens, UniProt P32239).
T3 sequence (P32239 whole entry): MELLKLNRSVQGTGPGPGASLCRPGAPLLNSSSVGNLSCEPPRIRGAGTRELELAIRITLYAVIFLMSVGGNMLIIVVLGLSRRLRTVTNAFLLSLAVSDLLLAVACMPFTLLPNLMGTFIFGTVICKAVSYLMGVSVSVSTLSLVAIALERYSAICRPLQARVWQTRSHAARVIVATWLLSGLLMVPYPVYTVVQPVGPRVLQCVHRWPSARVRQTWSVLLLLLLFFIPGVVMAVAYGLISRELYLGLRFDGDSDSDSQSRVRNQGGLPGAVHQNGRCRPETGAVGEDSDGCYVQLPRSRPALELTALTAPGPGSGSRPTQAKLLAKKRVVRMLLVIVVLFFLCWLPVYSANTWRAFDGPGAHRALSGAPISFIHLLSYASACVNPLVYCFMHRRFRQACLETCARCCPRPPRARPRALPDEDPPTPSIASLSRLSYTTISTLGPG

For assay [5], the target named is T4, Cholecystokinin receptor type A (Homo sapiens, UniProt P32238).
T4 sequence (P32238 whole entry): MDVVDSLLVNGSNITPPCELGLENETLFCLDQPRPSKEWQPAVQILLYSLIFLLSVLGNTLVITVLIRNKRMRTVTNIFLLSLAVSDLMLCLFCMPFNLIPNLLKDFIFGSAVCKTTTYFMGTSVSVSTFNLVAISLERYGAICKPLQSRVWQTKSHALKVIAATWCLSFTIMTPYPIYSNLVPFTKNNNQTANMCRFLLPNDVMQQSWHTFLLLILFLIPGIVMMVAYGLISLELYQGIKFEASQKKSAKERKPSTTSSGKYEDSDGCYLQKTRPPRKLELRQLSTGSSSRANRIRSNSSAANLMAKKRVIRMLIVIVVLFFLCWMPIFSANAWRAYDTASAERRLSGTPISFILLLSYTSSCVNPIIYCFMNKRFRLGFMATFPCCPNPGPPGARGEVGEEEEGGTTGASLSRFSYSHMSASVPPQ

Assay [6] has as its target T1, Alpha-2A adrenergic receptor. The format is functional, cell-based. This is another data set of the same source.
The next assay concerns the target Cannabinoid receptor 1 (Homo sapiens, UniProt P21554). The format is functional, cell-based.
Assay [7] concerns the target T5, Alpha-1A adrenergic receptor (Homo sapiens, UniProt P35348).
T5 sequence (P35348 whole entry): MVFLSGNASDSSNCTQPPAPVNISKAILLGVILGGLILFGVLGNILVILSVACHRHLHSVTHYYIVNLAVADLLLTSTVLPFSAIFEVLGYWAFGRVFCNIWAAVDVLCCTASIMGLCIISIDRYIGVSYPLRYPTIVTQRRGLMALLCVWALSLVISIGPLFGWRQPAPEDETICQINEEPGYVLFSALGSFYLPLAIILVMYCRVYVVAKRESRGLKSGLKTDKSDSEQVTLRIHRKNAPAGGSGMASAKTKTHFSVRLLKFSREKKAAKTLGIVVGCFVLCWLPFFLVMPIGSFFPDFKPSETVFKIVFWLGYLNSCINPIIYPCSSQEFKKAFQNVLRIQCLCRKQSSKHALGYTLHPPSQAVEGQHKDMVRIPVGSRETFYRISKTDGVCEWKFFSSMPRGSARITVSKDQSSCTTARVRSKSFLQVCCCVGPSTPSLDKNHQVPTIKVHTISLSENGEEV
It counts as functional, cell-based.

For assay [8], the target named is T5, Alpha-1A adrenergic receptor. It counts as functional, cell-based. This is another data set of the same source.

This is an account of results in ChEMBL document CHEMBL5291721, “A preclinical secondary pharmacology resource illuminates target-adverse drug reaction associations of marketed drugs” (Nat Commun, 2023).
Also: assay procedure not described here.

Sequence of Vasopressin V2 receptor (P30518 whole entry): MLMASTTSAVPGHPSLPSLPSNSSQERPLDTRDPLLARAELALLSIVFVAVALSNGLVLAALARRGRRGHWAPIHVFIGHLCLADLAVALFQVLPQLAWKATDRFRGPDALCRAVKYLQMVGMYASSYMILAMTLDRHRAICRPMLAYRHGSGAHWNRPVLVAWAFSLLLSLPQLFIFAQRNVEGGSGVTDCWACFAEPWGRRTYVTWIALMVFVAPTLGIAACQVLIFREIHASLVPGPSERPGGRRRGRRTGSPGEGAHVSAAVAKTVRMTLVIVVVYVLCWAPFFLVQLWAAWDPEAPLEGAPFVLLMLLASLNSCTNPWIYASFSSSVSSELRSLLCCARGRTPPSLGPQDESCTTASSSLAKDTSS
Sequence of Growth hormone secretagogue receptor type 1 (Q92847 whole entry): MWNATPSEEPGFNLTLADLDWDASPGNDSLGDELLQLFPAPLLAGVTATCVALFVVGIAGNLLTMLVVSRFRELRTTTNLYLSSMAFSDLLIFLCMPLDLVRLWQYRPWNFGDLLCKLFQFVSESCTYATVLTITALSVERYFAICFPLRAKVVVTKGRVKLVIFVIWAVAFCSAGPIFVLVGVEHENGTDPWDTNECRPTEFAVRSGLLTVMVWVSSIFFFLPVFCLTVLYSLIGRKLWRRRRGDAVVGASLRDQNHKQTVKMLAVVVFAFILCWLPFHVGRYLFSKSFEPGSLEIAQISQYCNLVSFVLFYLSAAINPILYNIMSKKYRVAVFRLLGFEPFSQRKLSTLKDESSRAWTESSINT
Sequence of Cannabinoid receptor 1 (P21554 whole entry): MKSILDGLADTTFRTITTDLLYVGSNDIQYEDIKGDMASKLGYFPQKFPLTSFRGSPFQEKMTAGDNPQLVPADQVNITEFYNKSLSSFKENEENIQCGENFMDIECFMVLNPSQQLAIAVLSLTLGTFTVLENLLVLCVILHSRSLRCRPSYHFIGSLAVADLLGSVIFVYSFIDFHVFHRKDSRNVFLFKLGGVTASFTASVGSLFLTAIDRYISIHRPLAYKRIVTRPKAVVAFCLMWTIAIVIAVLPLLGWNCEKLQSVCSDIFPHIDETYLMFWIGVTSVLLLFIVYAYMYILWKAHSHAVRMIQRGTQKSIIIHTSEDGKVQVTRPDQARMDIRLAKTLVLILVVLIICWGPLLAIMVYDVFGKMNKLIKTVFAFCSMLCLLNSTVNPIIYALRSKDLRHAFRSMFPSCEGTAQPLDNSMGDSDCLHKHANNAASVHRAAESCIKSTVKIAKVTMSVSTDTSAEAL

A word on the AC50: it is the midpoint of the concentration-response curve, whichever way the signal moves. Low values mean greater potency, high ones weaker potency. Turning to `NCCCC(O)(P(=O)(O)O)P(=O)(O)O` [ALENDRONIC ACID], the AC50 on Vasopressin V2 receptor is greater than 30 µM; in assay [1], greater than 10 µM; in assay [2], greater than 10 µM; in assay [3], greater than 30 µM; on Adenosine receptor A3, greater than 30 µM; in assay [4], greater than 30 µM. For the same compound, the AC50 in assay [5] is greater than 30 µM; in assay [6], greater than 10 µM.
As for `CC(=O)OCC(=O)[C@@]1(O)CC[C@H]2[C@@H]3CCC4=CC(=O)CC[C@]4(C)C3=CC[C@@]21C` [ANECORTAVE ACETATE], the AC50 is greater than 30 µM on Cannabinoid receptor 1; greater than 10 µM at Vasopressin V2 receptor; greater than 10 µM in [1]; greater than 10 µM in [2]; greater than 10 µM in assay [3]; greater than 30 µM in assay [7]. Further, the AC50 on Adenosine receptor A3 was greater than 10 µM; in assay [8] it was greater than 30 µM; in assay [5] it was greater than 10 µM; in assay [6] it was greater than 10 µM.
As to `NS(=O)(=O)c1cc2c(cc1C(F)(F)F)NC(Cc1ccccc1)NS2(=O)=O` (stereo not given) [BENDROFLUMETHIAZIDE], the AC50 (on Vasopressin V2 receptor; in assay [1]; in assay [2]; in assay [3]; at Adenosine receptor A3; in assay [5]) was greater than 10 µM in each case. The compound also gave an AC50 in [6] greater than 10 µM.
For `C[C@@H]1C[C@H]2[C@@H]3C[C@H](F)C4=CC(=O)C=C[C@]4(C)[C@@]3(F)[C@@H](O)C[C@]2(C)[C@H]1C(=O)CO` [DIFLUCORTOLONE], the AC50 on Adenosine receptor A3 was greater than 30 µM.
For `CC1(C)C(/C=C/C=C/C=C/C=C2\N(CCCCS(=O)(=O)O)c3ccc4ccccc4c3C2(C)C)=[N+](CCCCS(=O)(=O)[O-])c2ccc3ccccc3c21` [INDOCYANINE GREEN ACID FORM], the AC50 at Vasopressin V2 receptor is greater than 30 µM; in assay [1], greater than 30 µM; in assay [2], greater than 30 µM; in assay [3], 14 µM; on Adenosine receptor A3, 3 µM; in [8], greater than 30 µM. Besides, the AC50 is 9.2 µM in assay [4], 19 µM in [5] and greater than 30 µM in [6].
Turning to `CC#CCn1c(N2CCC[C@@H](N)C2)nc2c1c(=O)n(Cc1nc(C)c3ccccc3n1)c(=O)n2C` [LINAGLIPTIN], the half-maximal activity concentration (AC50) on Vasopressin V2 receptor is greater than 30 µM; in [1], greater than 10 µM; in assay [2], greater than 10 µM; in assay [3], 5.2 µM; on Adenosine receptor A3, 26.2 µM; in assay [4], greater than 30 µM. Further, the AC50 in [5] is greater than 30 µM; in assay [6], greater than 10 µM.
For the compound `CC(=O)Nc1c(I)c(C(=O)N[C@H]2C(O)O[C@H](CO)[C@@H](O)[C@@H]2O)c(I)c(N(C)C(C)=O)c1I` (stereo not given in full) [METRIZAMIDE], the AC50 was greater than 30 µM at Cannabinoid receptor 1; greater than 10 µM at Vasopressin V2 receptor; greater than 10 µM in assay [1]; greater than 10 µM in assay [2]; greater than 10 µM in assay [3]; greater than 30 µM in [7]. Besides, the AC50 at Adenosine receptor A3 was greater than 10 µM; in [8], greater than 30 µM; in assay [5] it was greater than 10 µM; in assay [6], greater than 10 µM.
As for `CCOC(=O)Nc1ccc2c(c1)N(C(=O)CCN1CCOCC1)c1ccccc1S2` [MORICIZINE], the AC50 (at Cannabinoid receptor 1; on Vasopressin V2 receptor; in assay [1]; in assay [2]; in assay [3]; on Adenosine receptor A3) was greater than 30 µM throughout. The AC50 in assay [8], in assay [4], in assay [5] and in [6] was greater than 30 µM each time.
`O=C1CN=C(c2ccccc2)c2cc(Cl)ccc2N1` [NORDAZEPAM]: the AC50 is greater than 30 µM at Cannabinoid receptor 1; greater than 30 µM at Vasopressin V2 receptor; greater than 10 µM in assay [1]; greater than 10 µM in assay [2]; greater than 30 µM in assay [3]; greater than 30 µM at Adenosine receptor A3. Also, the AC50 was greater than 30 µM in assay [8], greater than 30 µM in assay [4], greater than 30 µM in [5] and greater than 10 µM in assay [6].
Take `CC(CCc1ccccc1)NC(C)C(O)c1ccc(O)cc1` (stereo not given) [NYLIDRIN]: the AC50 at Cannabinoid receptor 1 was greater than 30 µM; at Vasopressin V2 receptor, greater than 30 µM; in assay [2], greater than 10 µM; in [3] it was greater than 30 µM; at Adenosine receptor A3, greater than 30 µM; in assay [4], greater than 30 µM. For the same compound, the AC50 is greater than 30 µM in [5] and 19 µM in assay [6].
On to `CC1(C)C(C=C(Cl)Cl)C1C(=O)OCc1cccc(Oc2ccccc2)c1` (stereo not given) [PERMETHRIN], for which the AC50 (on Vasopressin V2 receptor; in assay [1]; in [2]; in assay [3]; on Adenosine receptor A3; in assay [5]) was greater than 10 µM throughout. In [6], the AC50 was 9.7 µM.
Turning to `NC(=O)CCC/N=C(\c1ccc(Cl)cc1)c1cc(F)ccc1O` [PROGABIDE], the AC50 on Vasopressin V2 receptor was greater than 10 µM; in assay [1], greater than 10 µM; in assay [2] it was greater than 10 µM; in assay [3], greater than 10 µM; in assay [7], greater than 30 µM; at Adenosine receptor A3, greater than 10 µM. Further, the values for the AC50 in assay [8], in assay [5] and in assay [6] were greater than 30 µM, greater than 10 µM and greater than 10 µM, respectively.
For the compound `COc1cc2nccc(Oc3ccc(NC(=O)Nc4cc(C)on4)c(Cl)c3)c2cc1OC` [TIVOZANIB], the AC50 in assay [7] was 19 µM; at Adenosine receptor A3 it was greater than 3 µM; in [8], greater than 30 µM.
Consider `COc1ccc(C(CN(C)C)C2(O)CCCCC2)cc1` (stereo not given) [VENLAFAXINE], for which the AC50 is greater than 30 µM on Vasopressin V2 receptor; greater than 10 µM in [1]; greater than 10 µM in assay [2]; greater than 30 µM in [3]; greater than 30 µM in assay [7]; greater than 30 µM at Adenosine receptor A3. Further, the AC50 in assay [8] was greater than 30 µM; in assay [4] it was greater than 30 µM; in assay [5], greater than 30 µM; in assay [6] it was greater than 10 µM.
`C=CC(N)CCC(=O)O` (stereo not given) [VIGABATRIN]: the AC50 is greater than 30 µM on Cannabinoid receptor 1; greater than 10 µM at Vasopressin V2 receptor; greater than 10 µM in [1]; greater than 10 µM in [2]; greater than 10 µM in assay [3]; greater than 30 µM in assay [7]. Besides, the AC50 on Adenosine receptor A3 is greater than 10 µM; in assay [8] it was greater than 30 µM; in [5], greater than 10 µM; in [6] it was greater than 10 µM.
